Data published in patent US12543736B2, “Herbicidal compositions comprising mesotrione” (BASF SE, priority 2024, dated 2026).

How the values were obtained:
Assay type in all cases: in vivo
Senecio vulgaris = test: Example 3 post-emergence field trial, SENVU; details: height 25-30 cm, 7 DAT
Method: (§1) In the examples below, using the method of S. R. Colby (1967) “Calculating synergistic and antagonistic responses of herbicide combinations”, Weeds 15, p. 22ff., the value E, which is expected if the activity of the individual active compounds is only additive, was calculated: [formula] • where • X=percent activity using active herbicide A at an application rate a; • Y=percent activity using active herbicide B (e.g. mesotrione) at an application rate b; • E=expected activity (in %) by A+B at application rates a+b. If the value found experimentally is higher than the value E calculated according to Colby, a synergistic effect is present. Evaluation was carried out using a scale from 0 to 100. 100 means no emergence of the plants, or complete destruction of at least the above-ground parts, and 0 means no damage or normal course of growth. A good herbicidal activity is given at values of at least 70, and very good herbicidal activity is given at values of at least 85. Post-Emergence Application of Herbicide A-1 (A-1) and Mesotrione (B) in Field Trials Herbicide A-1 (342 g/l) and mesotrione (100 g/l) were, together with addition of 0.5 v/v % MSO (methylated sed oil) as adjuvant, formulated in water as distribution medium (water volume 200 l/ha) and sprayed with commercial flat fan nozzles.

Eleusine indica = test: Example 1 post-emergence greenhouse trial, ELEIN; details: growth stage 14, 21 DAT
Method: In the examples below, using the method of S. R. Colby (1967) “Calculating synergistic and antagonistic responses of herbicide combinations”, Weeds 15, p. 22ff., the value E, which is expected if the activity of the individual active compounds is only additive, was calculated: [formula] • where • X=percent activity using active herbicide A at an application rate a; • Y=percent activity using active herbicide B (e.g. mesotrione) at an application rate b; • E=expected activity (in %) by A+B at application rates a+b. If the value found experimentally is higher than the value E calculated according to Colby, a synergistic effect is present. The culture containers used were plastic pots containing loamy sand with approximately 3.0% of humus as substrate. The seeds of the test plants were sown separately for each species. For the post-emergence treatment, the test plants were grown to a plant height of from 3 to 15 cm, depending on the plant habit, and only then treated with the active compounds which had been suspended or emulsified in water. To this end, the test plants were either sown directly, and grown in the same containers, or they were first grown separately as seedlings and transplanted into the test containers a few days prior to treatment. Depending on the species, the plants were kept at 10-25° C. and 20-35° C., respectively. The test period extended over 2 to 4 weeks. During this time, the plants were tended and their response to the individual treatments was evaluated. Evaluation was carried out using a scale from 0 to 100. 100 means no emergence of the plants, or complete destruction of at least the above-ground parts, and 0 means no damage or normal course of growth. A good herbicidal activity is given at values of at least 70, and very good herbicidal activity is given at values of at least 85. Post-Emergence Application of Herbicide A-1 (A-1) and Mesotrione (B) in Greenhouse Trials Herbicide A-1 (50 g/l) and mesotrione (480 g/l) were, together with addition of 1 v/v % MSO (methylated sed oil) as adjuvant, formulated in water as distribution medium (water volume 200 l/ha) and sprayed with commercial flat fan nozzles.

Echinochloa crus-galli = test: Example 3 post-emergence field trial, ECHCG; details: height 15-20 cm
Method: as §1

Hordeum vulgare = test: Example 3 post-emergence field trial, HORVX; details: height 20-25 cm
Method: as §1

Glycine max = test: Example 3 post-emergence field trial, GLXMA; details: height 7-11 cm
Method: as §1

Digitaria sanguinalis = test: Example 3 post-emergence field trial, DIGSA; details: height 10-15 cm; for % herbicidal activity B / % herbicidal activity A-1: 42 DAT
Method: as §1

Setaria verticillata = test: Example 3 post-emergence field trial, SETVE; details: height 8-16 cm; for % herbicidal activity B / % herbicidal activity A-1: 42 DAT; for % herbicidal activity: g ai/ha: A-1 18, B 105
Method: as §1

[1] = 7 DAT, g ai/ha: A-1 12.5, B 105
[2] = 7 DAT, g ai/ha: A-1 12.5, B 210
[3] = 21 DAT, g ai/ha: A-1 12.5, B 105
[4] = 28 DAT, g ai/ha: A-1 12.5, B 105
[5] = 21 DAT, g ai/ha: A-1 12.5, B 210
[6] = 28 DAT, g ai/ha: A-1 12.5, B 210

Structure (SMILES)	% herbicidal activity (Senecio vulgaris; g ai/ha: A-1 12.5, B 210)	% herbicidal activity (Senecio vulgaris; g ai/ha: A-1 18, B 210)	% herbicidal activity (Eleusine indica; g ai/ha: A-1 2, B 62.5)	% herbicidal activity (Eleusine indica; g ai/ha: A-1 4, B 62.5)	% herbicidal activity (Echinochloa crus-galli; [1])	% herbicidal activity (Echinochloa crus-galli; [2])	% herbicidal activity (Echinochloa crus-galli; 7 DAT, g ai/ha: A-1 18, B 105)	% herbicidal activity (Echinochloa crus-galli; 7 DAT, g ai/ha: A-1 18, B 210)	% herbicidal activity (Echinochloa crus-galli; [3])	% herbicidal activity (Echinochloa crus-galli; 21 DAT, g ai/ha: A-1 18, B 105)	% herbicidal activity (Echinochloa crus-galli; [4])	% herbicidal activity (Echinochloa crus-galli; 28 DAT, g ai/ha: A-1 18, B 105)	% herbicidal activity (Hordeum vulgare; [1])	% herbicidal activity (Hordeum vulgare; [2])	% herbicidal activity (Hordeum vulgare; 7 DAT, g ai/ha: A-1 18, B 105)	% herbicidal activity (Hordeum vulgare; 7 DAT, g ai/ha: A-1 18, B 210)	% herbicidal activity (Hordeum vulgare; [3])	% herbicidal activity (Hordeum vulgare; [5])	% herbicidal activity (Hordeum vulgare; 21 DAT, g ai/ha: A-1 18, B 105)	% herbicidal activity (Hordeum vulgare; 21 DAT, g ai/ha: A-1 18, B 210)	further results
CS(=O)(=O)c1ccc(C(=O)C2C(=O)CCCC2=O)c([N+](=O)[O-])c1 [B, mesotrione]	40%	40%	50%	50%	50%	50%	50%	50%	60%	60%	50%	50%	20%	0%	20%	0%	20%	0%	20%	0%	% herbicidal activity B (Hordeum vulgare; 42 DAT, B 210 g ai/ha): 0%; % herbicidal activity (Hordeum vulgare; [4]): 20%; % herbicidal activity (Hordeum vulgare; [6]): 20%; % herbicidal activity (Hordeum vulgare; 28 DAT, g ai/ha: A-1 18, B 105): 20%; % herbicidal activity (Hordeum vulgare; 28 DAT, g ai/ha: A-1 18, B 210): 20%; % herbicidal activity (Glycine max; [1]): 55%; % herbicidal activity (Glycine max; 7 DAT, g ai/ha: A-1 18, B 105): 55%; % herbicidal activity (Glycine max; [3]): 45%; % herbicidal activity B (Digitaria sanguinalis; B 105 g ai/ha): 55%; % herbicidal activity B (Digitaria sanguinalis; B 210 g ai/ha): 70%; % herbicidal activity (Digitaria sanguinalis; [1]): 50%; % herbicidal activity (Digitaria sanguinalis; 7 DAT, g ai/ha: A-1 18, B 105): 50%; % herbicidal activity (Digitaria sanguinalis; [3]): 65%; % herbicidal activity (Digitaria sanguinalis; 21 DAT, g ai/ha: A-1 18, B 105): 65%; % herbicidal activity B (Setaria verticillata; B 105 g ai/ha): 30%; % herbicidal activity B (Setaria verticillata; B 210 g ai/ha): 20%; % herbicidal activity (Setaria verticillata; 7 DAT): 50%; % herbicidal activity (Setaria verticillata; 21 DAT): 35%
CCOC(=O)COc1ccccc1Oc1nc(-n2c(=O)cc(C(F)(F)F)n(C)c2=O)c(F)cc1Cl [A-1, ethyl 2-[2-[[3-chloro-5-fluoro-6-[3-methyl-2,6-dioxo-4-(trifluoromethyl)pyrimidin-1-yl]-2-pyridyl]oxy]phenoxy]acetate]	85%	88%	95%	95%	30%	20%	30%	30%	30%	30%	20%	30%	70%	60%	80%	70%	70%	60%	85%	70%	% herbicidal activity A-1 (Hordeum vulgare; 42 DAT, A-1 12.5 g ai/ha): 95%; % herbicidal activity (Hordeum vulgare; [4]): 70%; % herbicidal activity (Hordeum vulgare; [6]): 70%; % herbicidal activity (Hordeum vulgare; 28 DAT, g ai/ha: A-1 18, B 105): 90%; % herbicidal activity (Hordeum vulgare; 28 DAT, g ai/ha: A-1 18, B 210): 70%; % herbicidal activity (Glycine max; [1]): 90%; % herbicidal activity (Glycine max; 7 DAT, g ai/ha: A-1 18, B 105): 90%; % herbicidal activity (Glycine max; [3]): 92%; % herbicidal activity A-1 (Digitaria sanguinalis; A-1 12.5 g ai/ha): 65%; % herbicidal activity A-1 (Digitaria sanguinalis; A-1 18 g ai/ha): 70%; % herbicidal activity (Digitaria sanguinalis; [1]): 80%; % herbicidal activity (Digitaria sanguinalis; 7 DAT, g ai/ha: A-1 18, B 105): 80%; % herbicidal activity (Digitaria sanguinalis; [3]): 70%; % herbicidal activity (Digitaria sanguinalis; 21 DAT, g ai/ha: A-1 18, B 105): 80%; % herbicidal activity A-1 (Setaria verticillata; A-1 12.5 g ai/ha (row with B 105)): 60%; % herbicidal activity A-1 (Setaria verticillata; A-1 12.5 g ai/ha (row with B 210)): 50%; % herbicidal activity (Setaria verticillata; 7 DAT): 80%; % herbicidal activity (Setaria verticillata; 21 DAT): 75%
